For this assay, the target named is T1, recombinant human MMP-12 catalytic domain (Homo sapiens, UniProt P39900).
T1 construct: recombinant human MMP-12 catalytic domain; purchased Enzo BML-SE138
T1 sequence (P39900 106-268 limits assumed): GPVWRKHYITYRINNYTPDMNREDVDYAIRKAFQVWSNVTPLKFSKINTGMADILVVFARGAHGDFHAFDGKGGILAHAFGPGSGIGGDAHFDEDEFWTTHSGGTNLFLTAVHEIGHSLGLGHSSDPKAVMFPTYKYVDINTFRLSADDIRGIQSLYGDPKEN
The assay can be described thus: MMP-12 inhibitory assay (fluorogenic substrate cleavage). The class given is biochemical. The following applies: readout at 30 minutes, 37° C., Table 1. The procedure:
The inhibitory effect of compounds on the rate of cleaving fluorogenic MMP substrate (Enzo, BML-P128) by recombinant human MMP-12 catalytic domain (Enzo, BML-SE138) was carried out by methods known in the art. Briefly, to each well of a 96-well black opaque plate, all the reagents were sequentially added by pipetting, and the final reaction contained 4 nM of recombinant human MMP-12 catalytic domain, 4 μM of fluorogenic MMP substrate, and various concentrations (0.15 nM to 10,000 nM) of tested compound dilutions in HEPES buffer (pH 7.5) containing 10 mM of CaCl2), 0.01% Brij® 35 (polyoxyethylene (23) lauryl ether), and 0.1 mg/ml of BSA.
The enzyme and compounds were pre-incubated on a shaker to mix in wells. After an hour of mixing, fluorogenic substrate was added to each well. Reaction without enzyme was used as a blank control in the plate. The plate was then fed into a plate reader to measure fluorescence intensity at Excitation/Emission wavelengths of 340 nm/440 nm every 10 mins for at least 1 hour at 37° C. The IC50 of each compound in MMP-12 inhibition was determined by using a readout obtained at time point 30 minutes.
A word on the IC50: it is the concentration needed to halve the response being measured. Regarding `Cc1cccc(COc2ccc(Sc3ccccc3C3NC(=O)NC3=O)cc2)c1` (stereo not drawn) [OC-1], the IC50 lay within 10 to 100 nM. With `Cc1cccc(COc2ccc([S+]([O-])c3ccccc3C3NC(=O)NC3=O)cc2)c1` (stereo not drawn) [OC-2] the figure was 100 to 1000 nM; with `Cc1cccc(COc2ccc(Sc3cc[n+](O)cc3C3NC(=O)NC3=O)cc2)c1` (stereo not drawn) [OC-3], 10 to 100 nM. For the compound `Cc1cccc(COc2ccc(S(=O)(=O)c3cc[n+](O)cc3C3NC(=O)NC3=O)cc2)c1` (stereo not drawn) [OC-4], the IC50 is greater than 1000 nM. For the compound `Cc1cccc(COc2ccc(Sc3cnn(C)c3C3NC(=O)NC3=O)cc2)c1` (stereo not drawn) [OC-5], the IC50 lay within 10 to 100 nM. For the compound `Cc1cccc(COc2ccc(Sc3ncn(C)c3C3NC(=O)NC3=O)cc2)c1` (stereo not drawn) [OC-6], the IC50 lay within 10 to 100 nM. As to `Cc1cccc(COc2ccc(Sc3ncoc3C3NC(=O)NC3=O)cc2)c1` (stereo not drawn) [OC-10], the half-inhibitory concentration (IC50) fell in the range of 10 to 100 nM. Turning to `Cc1cc(COc2ccc(Sc3c(C4NC(=O)NC4=O)ncn3C)cc2)ccn1` (stereo not drawn) [OC-14], the IC50 was in the range of 10 to 100 nM. Under `Cc1cccc(COc2ccc(Sc3ncccc3C3NC(=O)NC3=O)cc2)c1` (stereo not drawn) [PC-1] stands 10 to 100 nM. Turning to `Cc1cccc(COc2ccc(Sc3ccncc3C3NC(=O)NC3=O)cc2)c1` (stereo not drawn) [PC-2], the IC50 fell in the range of 10 to 100 nM. As to `Cc1cccc(COc2ccc(Sc3cccnc3C3NC(=O)NC3=O)cc2)c1` (stereo not drawn) [PC-3], the concentration for half-maximal inhibition (IC50) was in the range of 10 to 100 nM.

`Cc1cccc(COc2ccc(Sc3cnccc3C3NC(=O)NC3=O)cc2)c1` (stereo not drawn) [PC-4]: the IC50 is 10 to 100 nM. As to `Cc1cccc(COc2ccc([S+]([O-])c3ccncc3C3NC(=O)NC3=O)cc2)c1` (stereo not drawn) [PC-5], the concentration for half-maximal inhibition (IC50) was 100 to 1000 nM.

Regarding `Cc1cccc(COc2ccc(S(=O)(=O)c3ccncc3C3NC(=O)NC3=O)cc2)c1` (stereo not drawn) [PC-6], the IC50 was in the range of 100 to 1000 nM. Under `O=C1NC(=O)C(c2cnccc2Sc2ccc(OCc3ccc(CO)cc3)cc2)N1` (stereo not drawn) [PC-7] stands 10 to 100 nM. As for `O=C1NC(=O)C(c2cnccc2Sc2ccc(OCc3ccccc3CO)cc2)N1` (stereo not drawn) [PC-9], the IC50 fell in the range of 10 to 100 nM. Under `CC(C)[C@H](N)C(=O)OCc1cccc(COc2ccc(Sc3ccncc3C3NC(=O)NC3=O)cc2)c1` (stereo partly drawn) [PC-11] stands 10 to 100 nM; under `O=C1NC(=O)C(c2ccncc2Sc2ccc(OCc3ccc(CO)cc3)cc2)N1` (stereo not drawn) [PC-14], 10 to 100 nM; under `Cc1cncc(COc2ccc(Sc3ccncc3C3NC(=O)NC3=O)cc2)c1` (stereo not drawn) [PC-17], 100 to 1000 nM. Under `Cc1cncc(COc2ccc(Sc3cnccc3C3NC(=O)NC3=O)cc2)c1` (stereo not drawn) [PC-19] stands 100 to 1000 nM; under `O=C1NC(=O)C(c2cnccc2Oc2ccc(OCc3cccc(C(=O)O)c3)cc2)N1` (stereo not drawn) [PC-23], greater than 1000 nM. With `O=C1NC(=O)C(c2cnccc2Oc2ccc(OCc3cccc(CO)c3)cc2)N1` (stereo not drawn) [PC-25] the figure was 10 to 100 nM; with `Cc1cccc(COc2ccc(Oc3ccncc3C3NC(=O)NC3=O)cc2)c1` (stereo not drawn) [PC-26], 10 to 100 nM; with `Cc1cc(COc2ccc(Oc3ccncc3C3NC(=O)NC3=O)cc2)ccn1` (stereo not drawn) [PC-27], 10 to 100 nM.

With `CNC(=O)c1cccc(COc2ccc(Sc3ccncc3C3NC(=O)NC3=O)cc2)c1` (stereo not drawn) [PC-29], the IC50 was 10 to 100 nM. Under `COc1cc(COc2ccc(Sc3ccncc3C3NC(=O)NC3=O)cc2)ccn1` (stereo not drawn) [PC-30] stands 10 to 100 nM; under `CCOc1cc(COc2ccc(Sc3ccncc3C3NC(=O)NC3=O)cc2)ccn1` (stereo not drawn) [PC-31], 10 to 100 nM; under `CC(C)Oc1cc(COc2ccc(Sc3ccncc3C3NC(=O)NC3=O)cc2)ccn1` (stereo not drawn) [PC-32], 10 to 100 nM. For `CC(C)COc1cc(COc2ccc(Sc3ccncc3C3NC(=O)NC3=O)cc2)ccn1` (stereo not drawn) [PC-33], the IC50 lay in the range of 100 to 1000 nM. With `NC(=O)c1cncc(COc2ccc(Sc3ccncc3C3NC(=O)NC3=O)cc2)c1` (stereo not drawn) [PC-34] the figure was 10 to 100 nM; with `O=C1NC(=O)C(c2cnccc2Sc2ccc(OCc3ccnc(O)c3)cc2)N1` (stereo not drawn) [PC-35], 100 to 1000 nM; with `CNC(=O)c1cncc(COc2ccc(Sc3ccncc3C3NC(=O)NC3=O)cc2)c1` (stereo not drawn) [PC-36], 100 to 1000 nM. `NC(=O)c1ccc(COc2ccc(Sc3ccncc3C3NC(=O)NC3=O)cc2)cc1` (stereo not drawn) [PC-37]: the IC50 was in the range of 100 to 1000 nM.

The values are drawn from patent US20190352288A1, “MATRIX METALLOPROTEINASE (MMP) INHIBITORS AND METHODS OF USE THEREOF” (Foresee Pharmaceuticals Co., Ltd., priority 2018, published 2019).
